Experimental data from PubChem BioAssay (NCI).
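Compound exposure: 48 hours, 5 concentrations, 96-well plates. GI50 marks 50% less growth. The concentration for full growth arrest is given as TGI.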

Columns and labels:
Experiment in all cases: NCI tumour cell line growth inhibition, 48 h
HS 578T breast = tested on: HS 578T breast
NCI/ADR-RES ovarian = tested on: NCI/ADR-RES ovarian
MDA-N = tested on: MDA-N
BT-549 breast = tested on: BT-549 breast
P388/ADR leukemia = tested on: P388/ADR leukemia
SNB-78 CNS = tested on: SNB-78 CNS
XF 498 CNS = tested on: XF 498 CNS
M19-MEL melanoma = tested on: M19-MEL melanoma
P388 leukemia = tested on: P388 leukemia
SN12K1 renal = tested on: SN12K1 renal
HOP-18 NSCLC = tested on: HOP-18 NSCLC
RXF-631 renal = tested on: RXF-631 renal

Row | Structure (SMILES) | TGI (HS 578T breast) [µM] | TGI (NCI/ADR-RES ovarian) [µM] | TGI (MDA-N) [µM] | TGI (BT-549 breast) [µM] | TGI (SNB-78 CNS) [µM] | TGI (M19-MEL melanoma) [µM] | other results
1 | O=C(Nc1ccc(-n2ccc3c(NC(=O)c4ccccc4)ncnc32)cc1)Nc1ccc(Cl)c(C(F)(F)F)c1 | 4.61 | 8.55 |  |  |  |  | GI50 (HS 578T breast): 1.27 µM; GI50 (NCI/ADR-RES ovarian): 2.41 µM
2 | N=C(N)SC(c1ccccc1)c1ccccc1 | > 100 | 47 | 26.5 | 37.2 |  |  | 
3 | Cc1cc(N2CCCCC2)nc(NCc2cc(Nc3ccnc4cc(Cl)ccc34)ccc2F)n1 | 4.62 | 4.74 |  |  |  |  | GI50 (HS 578T breast): 2.03 µM; GI50 (NCI/ADR-RES ovarian): 2 µM
4 | NS(=O)(=O)c1ccc(C(=O)O)cc1 | > 100 | > 100 | > 100 | > 100 |  |  | 
5 | Cc1nc2ccccc2c(=O)n1Nc1ccc(C(=O)O)cc1 |  | > 100 |  |  | > 100 | > 100 | TGI (P388/ADR leukemia): > 100 µM; TGI (XF 498 CNS): > 100 µM; TGI (P388 leukemia): > 100 µM; TGI (SN12K1 renal): > 100 µM; TGI (HOP-18 NSCLC): > 100 µM
6 | O=C1CC(c2ccccc2)NCCCCN2CC(CN1)C(C(O)c1ccccc1)C2=O (configuration not stated) | > 100 | > 100 | > 100 | > 100 |  |  | 
7 | CC(C)(c1ccccc1)c1ccc(Oc2ccc3c(c2)-c2nc-3nc3[nH]c(nc4nc(nc5[nH]c(n2)c2ccc(Oc6ccc(C(C)(C)c7ccccc7)cc6)cc52)-c2cc(Oc5ccc(C(C)(C)c6ccccc6)cc5)ccc2-4)c2ccc(Oc4ccc(C(C)(C)c5ccccc5)cc4)cc32)cc1 |  |  |  |  | > 100 | > 100 | TGI (RXF-631 renal): > 100 µM; TGI (XF 498 CNS): > 100 µM
8 | COc1ccc(C(=O)NNC(=O)c2nsc3ccccc23)cc1 |  |  |  |  | > 100 | > 100 | 
9 | Nc1ccc([As](=O)(O)O)cc1 | > 100 | > 100 | > 100 | > 100 |  |  | 
10 | Cc1cccc(NC(N)=S)c1 |  |  |  |  | > 100 | > 100 | TGI (RXF-631 renal): > 100 µM; TGI (XF 498 CNS): > 100 µM
11 | COc1ccc2c(c1)C(=O)c1c-2n(CCCCl)c(=O)c2cc([N+](=O)[O-])ccc12 | > 100 |  |  | > 100 |  |  | GI50 (HS 578T breast): > 68.9 µM; GI50 (BT-549 breast): 1.56 µM; GI50 (NCI/ADR-RES ovarian): 0.0815 µM
